Test system: 922993-354-T-J3-PDC complex spheroids, viability
Assay: Anticancer human tumor 922993-354-T-J3-PDC patient-derived endometrial carcinoma cell line growth inhibition [GQUAD]
Details: for IC50: curve of first compound; for viability, T/C: stronger effect = lower value
Summary of the method: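 Multi-cell-type spheroids of tumor cells with HUVEC and mesenchymal stem cells, treated with drug combinations. Concentrations descend in half-log steps from near clinical Cmax, or from 10 microM where Cmax is unknown; viability read-out.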

[1] = second compound 0.0316 µM, first compound 0.0316 µM
[2] = second compound 0.0316 µM, first compound 0.1 µM
[3] = second compound 0.0316 µM, first compound 0.316 µM
[4] = second compound 0.0316 µM, first compound 1 µM
[5] = second compound 0.0316 µM, first compound 3.16 µM
[6] = second compound 0.0316 µM, first compound 10 µM
[7] = second compound 0.1 µM, first compound 0.0316 µM
[8] = second compound 0.1 µM, first compound 0.1 µM
[9] = second compound 0.1 µM, first compound 0.316 µM
[10] = second compound 0.1 µM, first compound 1 µM
[11] = second compound 0.1 µM, first compound 3.16 µM
[12] = second compound 0.1 µM, first compound 10 µM
[13] = second compound 0.316 µM, first compound 0.0316 µM
[14] = second compound 0.316 µM, first compound 0.1 µM
[15] = second compound 0.316 µM, first compound 0.316 µM
[16] = second compound 0.316 µM, first compound 1 µM
[17] = second compound 0.316 µM, first compound 3.16 µM
[18] = second compound 0.316 µM, first compound 10 µM
[19] = second compound 1 µM, first compound 0.0316 µM
[20] = second compound 1 µM, first compound 0.1 µM
[21] = second compound 1 µM, first compound 0.316 µM
[22] = second compound 1 µM, first compound 1 µM
[23] = second compound 1 µM, first compound 3.16 µM
[24] = second compound 1 µM, first compound 10 µM
[25] = second compound 3.16 µM, first compound 0.0316 µM
[26] = second compound 3.16 µM, first compound 0.1 µM
[27] = second compound 3.16 µM, first compound 0.316 µM
[28] = second compound 3.16 µM, first compound 1 µM
[29] = second compound 3.16 µM, first compound 3.16 µM
[30] = second compound 3.16 µM, first compound 10 µM
[31] = second compound 10 µM, first compound 0.0316 µM
[32] = second compound 10 µM, first compound 0.1 µM
[33] = second compound 10 µM, first compound 0.316 µM
[34] = second compound 10 µM, first compound 1 µM
[35] = second compound 10 µM, first compound 3.16 µM
[36] = second compound 10 µM, first compound 10 µM
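Further: spheroids exposed to compounds for seven days.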
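Wherever viability, T/C is given: 100% = DMSO vehicle control viability.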

C=CC(=O)N1CCN(c2nc(=O)n(-c3c(C)ccnc3C(C)C)c3nc(-c4c(O)cccc4F)c(F)cc23)C(C)C1 (centres undefined) + CN(C)c1ccc(Nc2c3ccc(NC(=O)CCN4CCCC4)cc3nc3cc(NC(=O)CCN4CCCC4)ccc23)cc1 was tested, and the IC50 (second compound 0.0316 µM) was > 10 µM, the IC50 (second compound 0.1 µM) was > 10 µM and the IC50 (second compound 0.316 µM) was > 10 µM. For the same molecule, the IC50 (second compound 1 µM) was > 10 µM, the IC50 (second compound 3.16 µM) was > 10 µM and the IC50 (second compound 10 µM) was > 10 µM. For the same molecule, the viability, T/C [1] was 96.9%, the viability, T/C [2] was 84.8% and the viability, T/C [3] was 102%. The viability, T/C [4] was 104%, the viability, T/C [5] was 97% and the viability, T/C [6] was 119%. The viability, T/C [7] was 109%, the viability, T/C [8] was 109% and the viability, T/C [9] was 112%. The viability, T/C [10] was 94.5%, the viability, T/C [11] was 128% and the viability, T/C [12] was 109%. For the same molecule, the viability, T/C [13] was 112%, the viability, T/C [14] was 120% and the viability, T/C [15] was 96.7%. The viability, T/C [16] was 128%, the viability, T/C [17] was 103% and the viability, T/C [18] was 104%. For the same molecule, the viability, T/C [19] was 111%, the viability, T/C [20] was 118% and the viability, T/C [21] was 99.6%. For the same molecule, the viability, T/C [22] was 125%, the viability, T/C [23] was 117% and the viability, T/C [24] was 120%. For the same molecule, the viability, T/C [25] was 107%, the viability, T/C [26] was 128% and the viability, T/C [27] was 107%. For the same molecule, the viability, T/C [28] was 139%, the viability, T/C [29] was 137% and the viability, T/C [30] was 117%. For the same molecule, the viability, T/C [31] was 115%, the viability, T/C [32] was 140% and the viability, T/C [33] was 142%. For the same molecule, the viability, T/C [34] was 137%, the viability, T/C [35] was 153% and the viability, T/C [36] was 142%.

With C=CCn1c(=O)c2cnc(Nc3ccc(N4CCN(C)CC4)cc3)nc2n1-c1cccc(C(C)(C)O)n1 + Cc1[nH]c2ccc(F)cc2c1-c1nc2c3cccnc3c3ncccc3c2[nH]1 the IC50 (second compound 0.0316 µM) was 4.83 µM, the IC50 (second compound 0.1 µM) was 4.5 µM and the IC50 (second compound 0.316 µM) was 3.37 µM. It also gave an IC50 (second compound 1 µM) of 5.51 µM, an IC50 (second compound 3.16 µM) of 5.24 µM and an IC50 (second compound 10 µM) of 4.37 µM. It also gave a viability, T/C [1] of 119%, a viability, T/C [2] of 107% and a viability, T/C [3] of 119%. For the same molecule, the viability, T/C [4] was 101%, the viability, T/C [5] was 70.6% and the viability, T/C [6] was 16.6%. The viability, T/C [7] was 127%, the viability, T/C [8] was 81.2% and the viability, T/C [9] was 108%. It also gave a viability, T/C [10] of 91.7%, a viability, T/C [11] of 64.6% and a viability, T/C [12] of 16.4%. It also gave a viability, T/C [13] of 97.5%, a viability, T/C [14] of 122% and a viability, T/C [15] of 128%. The viability, T/C [16] was 116%, the viability, T/C [17] was 52.1% and the viability, T/C [18] was 14.7%. It also gave a viability, T/C [19] of 91.9%, a viability, T/C [20] of 102% and a viability, T/C [21] of 101%. It also gave a viability, T/C [22] of 91%, a viability, T/C [23] of 80.4% and a viability, T/C [24] of 17.9%. For the same molecule, the viability, T/C [25] was 114%, the viability, T/C [26] was 81.5% and the viability, T/C [27] was 124%. It also gave a viability, T/C [28] of 107%, a viability, T/C [29] of 75.4% and a viability, T/C [30] of 17.4%. It also gave a viability, T/C [31] of 105%, a viability, T/C [32] of 97.9% and a viability, T/C [33] of 104%. For the same molecule, the viability, T/C [34] was 98.2%, the viability, T/C [35] was 63.6% and the viability, T/C [36] was 15%.

— PubChem BioAssay AID2060489 (Molecular Pharmacology Branch, DTP, NCI, 2025)
